How the values were obtained:
Assay type in all cases: in vivo
[1] = tested on: Ipomoea grandifolia (IPOGR); experiment: herbicidal action with/without simulated rainfall after treatment, Ipomoea grandifolia; conditions: Example 10, flumioxazin 60 g/ha, glyphosate 1080 g/ha, 0.5% v/v Dash in Flumioxazin and mixture
Procedure: (§1) The enhancement of the rainfastness of glyphosate was determined via the herbicidal activity of the mixture comprising glyphosate and the respective rainfastness enhancing herbicidal component B as well as of the single herbicidal components in relation to simulated rainfall at different time intervals.
(§2) The evaluation of the damage caused by the method and the compositions the according to the present invention and the single herbicidal components was carried out using a scale from 0 to 100%, compared to the untreated control plots. Here, 0 means no damage and 100 means complete destruction of the plants of a respective weed or crop species.
(§3) The application was performed with a fixed spayer system with air pressurization and with a tank spray volume of two liters. The speed of the spray device over the plants was adjusted for a spray volume of 200 I/ha. The spray device was a spray barr with four nozzles from the type Teejet XR 11002VS with a space of 50 cm between each nozzle.
(§4) The application was performed at a weed stage of 6 to 8 leaves. After the application of the formulated herbicides the leaves were washed through rain of 20 mm using a fixed rain simulator system at following time interval: 15 min, 30 min, 1, 2, 3, 4 and 6 hours after treatment.

[2] = tested on: Bidens pilosa (BIDPI); experiment: herbicidal action with/without simulated rainfall after treatment, Bidens pilosa; conditions: Example 9, flumioxazin 60 g/ha, glyphosate 1080 g/ha, 0.5% v/v Dash in Flumioxazin and mixture
Procedure: as §1, §2, §3, §4

[3] = tested on: Brachiaria decumbens (BRADE); experiment: herbicidal action with/without simulated rainfall after treatment, Brachiaria decumbens; parameters: key: % damage vs untreated control; 0 = no damage, 100 = complete destruction
Outline: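 Glyphosate alone, component B alone or their mixture sprayed at 200 l/ha on weeds at the 6–8 leaf stage. Simulated rain of 20 mm applied 15 min, 30 min, 1, 2, 3, 4 or 6 h after treatment. Damage scored 0–100% against untreated controls.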

[4] = simulated rainfall 15 min after treatment, 1 DAA
[5] = simulated rainfall 15 min after treatment, 2 DAA
[6] = simulated rainfall 15 min after treatment, 3 DAA
[7] = simulated rainfall 15 min after treatment, 7 DAA
[8] = simulated rainfall 2 hours after treatment, 1 DAA
[9] = simulated rainfall 2 hours after treatment, 2 DAA
[10] = simulated rainfall 2 hours after treatment, 3 DAA
[11] = simulated rainfall 2 hours after treatment, 7 DAA
[12] = without simulated rainfall, 1 DAA
[13] = without simulated rainfall, 2 DAA
[14] = without simulated rainfall, 3 DAA
[15] = without simulated rainfall, 7 DAA

With `C#CCN1C(=O)COc2cc(F)c(N3C(=O)C4=C(CCCC4)C3=O)cc21` [Flumioxazin, flumioxazin] the “herbicidal action against IPOGR” value [1, 4] was 20.33%, the “herbicidal action against IPOGR” value [1, 5] was 75% and the “herbicidal action against IPOGR” value [1, 6] was 82.33%. For the same molecule, the “herbicidal action against IPOGR” value [1, 7] was 98.33%, the “herbicidal action against IPOGR” value ([1]; simulated rainfall 15 min after treatment, 14 DAA) was 90% and the “herbicidal action against IPOGR” value [1, 8] was 24.66%. The “herbicidal action against IPOGR” value [1, 9] was 80%, the “herbicidal action against IPOGR” value [1, 10] was 94.33% and the “herbicidal action against IPOGR” value [1, 11] was 99.66%. For the same molecule, the “herbicidal action against IPOGR” value ([1]; simulated rainfall 2 hours after treatment, 14 DAA) was 100%, the “herbicidal action against IPOGR” value [1, 12] was 19.33% and the “herbicidal action against IPOGR” value [1, 13] was 93.66%. For the same molecule, the “herbicidal action against IPOGR” value [1, 14] was 98%, the “herbicidal action against IPOGR” value [1, 15] was 98.66% and the “herbicidal action against IPOGR” value ([1]; without simulated rainfall, 14 DAA) was 97.66%. For the same molecule, the “herbicidal action against BIDPI” value [2, 4] was 51%, the “herbicidal action against BIDPI” value [2, 5] was 59.66% and the “herbicidal action against BIDPI” value [2, 6] was 64%. For the same molecule, the “herbicidal action against BIDPI” value [2, 7] was 69%, the “herbicidal action against BIDPI” value ([2]; simulated rainfall 30 min after treatment, 1 DAA) was 63.66% and the “herbicidal action against BIDPI” value ([2]; simulated rainfall 30 min after treatment, 2 DAA) was 63%. For the same molecule, the “herbicidal action against BIDPI” value ([2]; simulated rainfall 30 min after treatment, 3 DAA) was 82%, the “herbicidal action against BIDPI” value ([2]; simulated rainfall 30 min after treatment, 7 DAA) was 78.33% and the “herbicidal action against BIDPI” value [2, 8] was 72.33%. The “herbicidal action against BIDPI” value [2, 9] was 86.66%, the “herbicidal action against BIDPI” value [2, 10] was 91.66% and the “herbicidal action against BIDPI” value [2, 11] was 96.66%. For the same molecule, the “herbicidal action against BIDPI” value ([2]; simulated rainfall 6 hours after treatment, 1 DAA) was 66.66%, the “herbicidal action against BIDPI” value ([2]; simulated rainfall 6 hours after treatment, 2 DAA) was 84% and the “herbicidal action against BIDPI” value ([2]; simulated rainfall 6 hours after treatment, 3 DAA) was 91.33%. The “herbicidal action against BIDPI” value ([2]; simulated rainfall 6 hours after treatment, 7 DAA) was 92.66%, the “herbicidal action against BIDPI” value [2, 12] was 80% and the “herbicidal action against BIDPI” value [2, 13] was 92%. The “herbicidal action against BIDPI” value [2, 14] was 98%, the “herbicidal action against BIDPI” value [2, 15] was 98.66% and the “herbicidal action against BRADE” value ([3]; Example 11, simulated rainfall 15 min after treatment, 1 DAA, flumioxazin 60 g/ha, glyphosate 1080 g/ha, 0.5% v/v Dash in Flumioxazin and mixture) was 28.33%. The “herbicidal action against BRADE” value ([3]; Example 11, simulated rainfall 15 min after treatment, 2 DAA, flumioxazin 60 g/ha, glyphosate 1080 g/ha, 0.5% v/v Dash in Flumioxazin and mixture) was 64.66%, the “herbicidal action against BRADE” value ([3]; Example 11, simulated rainfall 15 min after treatment, 3 DAA, flumioxazin 60 g/ha, glyphosate 1080 g/ha, 0.5% v/v Dash in Flumioxazin and mixture) was 80% and the “herbicidal action against BRADE” value ([3]; Example 11, simulated rainfall 15 min after treatment, 7 DAA, flumioxazin 60 g/ha, glyphosate 1080 g/ha, 0.5% v/v Dash in Flumioxazin and mixture) was 82.33%. The “herbicidal action against BRADE” value ([3]; Example 11, simulated rainfall 30 min after treatment, 1 DAA, flumioxazin 60 g/ha, glyphosate 1080 g/ha, 0.5% v/v Dash in Flumioxazin and mixture) was 22.33%, the “herbicidal action against BRADE” value ([3]; Example 11, simulated rainfall 30 min after treatment, 2 DAA, flumioxazin 60 g/ha, glyphosate 1080 g/ha, 0.5% v/v Dash in Flumioxazin and mixture) was 53.66% and the “herbicidal action against BRADE” value ([3]; Example 11, simulated rainfall 30 min after treatment, 3 DAA, flumioxazin 60 g/ha, glyphosate 1080 g/ha, 0.5% v/v Dash in Flumioxazin and mixture) was 76%. The “herbicidal action against BRADE” value ([3]; Example 11, simulated rainfall 30 min after treatment, 7 DAA, flumioxazin 60 g/ha, glyphosate 1080 g/ha, 0.5% v/v Dash in Flumioxazin and mixture) was 76.66%, the “herbicidal action against BRADE” value ([3]; Example 11, without simulated rainfall, 1 DAA, flumioxazin 60 g/ha, glyphosate 1080 g/ha, 0.5% v/v Dash in Flumioxazin and mixture) was 14.66% and the “herbicidal action against BRADE” value ([3]; Example 11, without simulated rainfall, 2 DAA, flumioxazin 60 g/ha, glyphosate 1080 g/ha, 0.5% v/v Dash in Flumioxazin and mixture) was 41%. For the same molecule, the “herbicidal action against BRADE” value ([3]; Example 11, without simulated rainfall, 3 DAA, flumioxazin 60 g/ha, glyphosate 1080 g/ha, 0.5% v/v Dash in Flumioxazin and mixture) was 42.66%, the “herbicidal action against BRADE” value ([3]; Example 11, without simulated rainfall, 7 DAA, flumioxazin 60 g/ha, glyphosate 1080 g/ha, 0.5% v/v Dash in Flumioxazin and mixture) was 51% and the “herbicidal action against BRADE” value ([3]; simulated rainfall 2 hours after treatment, 1 DAA, Example 11.4) was 16.33. The “herbicidal action against BRADE” value ([3]; simulated rainfall 2 hours after treatment, 2 DAA, Example 11.4) was 50.66, the “herbicidal action against BRADE” value ([3]; simulated rainfall 2 hours after treatment, 3 DAA, Example 11.4) was 65 and the “herbicidal action against BRADE” value ([3]; simulated rainfall 2 hours after treatment, 7 DAA, Example 11.4) was 80. The “herbicidal action against BRADE” value ([3]; simulated rainfall 6 hours after treatment, 1 DAA, Example 11.5) was 21.66, the “herbicidal action against BRADE” value ([3]; simulated rainfall 6 hours after treatment, 2 DAA, Example 11.5) was 44.33 and the “herbicidal action against BRADE” value ([3]; simulated rainfall 6 hours after treatment, 3 DAA, Example 11.5) was 63.33. For the same molecule, the “herbicidal action against BRADE” value ([3]; simulated rainfall 6 hours after treatment, 7 DAA, Example 11.5) was 65.

Source: patent US20110105326A1, “Method for Enhancing the Rainfastness of Glyphosate” (BASF SE, priority 2008, published 2011)
